Like-named read-outs stand apart in the source and are kept apart here.
Tests used:
souris = conditions: mouse; for Nombre de passages (moyenne): 60 min before test, controls 5,5
Source text: Le test est pratiqué chez des souris NMRI-HAN soumises à une diète hydrique préalable de 18 heures et réparties en séries de 15.
L'appareillage utilisé consiste en une boite en plexiglas dont le sol est constitué de 4 plaques métalliques séparées les unes des autres. Un circuit d'alimentation permet d'établir une différence de potentiel entre deux plaques adjacentes grâce à un contacteur. Le test est pratiqué en plaçant doucement une souris sur une des plaques du fond de l'appareil ; les plaques sont électrifiées chaque fois que la souris passe de l'une à l'autre, de telle sorte qu'elle reçoit alors un choc électrique au niveau des pattes. Les paramètres du choc sont les suivants : durée de l'impulsion électrique égale à 0,5 seconde ; intensité égale à 0,6 milliampères. Ce choc induit chez les animaux une réaction motrice évidente de fuite, la souris traversant souvent 2 à 3 plaques successivement. Les conditions expérimentales adoptées ont été les suivantes : exploration libre pendant 15 secondes, traversée punie pendant la minute suivante, les résultats étant exprimés en nombre de passages "punis" pendant cette minute. Soixante souris ont été réparties de la façon suivante :
Les administrations ont été réalisées par voie intra-gastrique, à partir de solutions aqueuses, sous un volume constant de 20 ml.kg⁻¹, 60 minutes avant le début du test. Les animaux contrôles ont reçu un même volume d'eau distillée.
Les administrations ont été réalisées par voie intra-gastrique, à partir de solutions aqueuses, sous un volume constant de 20 ml.kg⁻¹ par produit 60 minutes avant le début du test. Les animaux contrôles ont reçu un même volume d'eau distillée.
Dans un premier temps a été calculée la DA 50 (dose anxiolytique 50) du Diazépam (Valium® 10 mg - Roche, ampoule 2ml) seul, administré à des doses suivant une progression géométrique de base 0,25 et de raison 2, soit respectivement 0,25, 0,5 l et 2 mg.kg⁻¹.
La DA 50 est déterminée à partir du pourcentage d'animaux tranquillisés. Est considéré comme tranquillisé tout animal dont le nombre de passages punis est égal ou supérieur à 9, c'est-à-dire à une valeur représentant une augmentation d'au moins 50 % par rapport au score moyen d'animaux non traités.
Toutes les administrations ont été réalisées par voie intra-gastrique à partir de solutions aqueuses, sous un volume constant de 20 ml.kg⁻¹ (eau distillée pour le groupe contrôle). […] La veille du test, les souris sont soumises à une diète hydrique de 18 heures. La dernière ingestion est pratiquée une heure avant l'étude, concomitamment avec le diazépam (Valium® 10 mg - Roche, ampoules de 2 ml).

[1] = test system: singes cynomolggus (Macaca fascicularis); conditions: monkey
Source text: L'étude a été réalisée chez sept singes cynomolggus (Macaca fascicularis), de sexe mâle et femelle, pesant entre 2 et 5 kg.
Un mois avant le début de l'étude, sous anesthésie générale (kétamine + xylazine) huit électrodes (boules d'argent) ont été implantées dans la table osseuse, au niveau des aires frontale, centrale, pariétale et occipitale droites et gauche. L'électrocorticogramme a été enregistré sur un électroencéphalographe REEGA mini-huit (Alvar Electronic) en dérivations monopolaires par rapport à une référence commune.
Les enregistrements ont été réalisés sur des animaux habitués au siège à contention, en position assise, dans une pièce calme mais non insonorisée, en ambiance lumineuse tamisée.
Les huit dérivations EEG ont été analysées simultanément par un Neuromapper 1620 (Neuroscience) qui extrait du signal les transformées de Fourier ("Fast Fourier Transform" : FFT). En fait, 90 échantillons de 2 secondes, soit 3 minutes de tracé exempt d'artefact, ont été analysés. Les données recueillies correspondent à l'amplitude (»V) de chacune des 5 bandes de fréquence EEG classiques selon les bornes suivantes : delta de 0 à 4 Hz ; thêta de 7 à 8 Hz ; alpha de 8 à 13 Hz, bêta₁ de 13 à 20 Hz ; bêta₂ de 20 à 30 Hz.
Pour chacune de ces bandes ont ensuite été calculées : • Les puissances absolues en »V² • les puissances relatives (%), c'est-à-dire la puissance de chacune des bandes de fréquence rapportée à la puissance totale du spectre (power) • la "SEF 95 % (Spectral Edge Frequency 95 %) qui est la fréquence en deçà de laquelle se situent 95 % de la puissance totale du spectre, • le rapport entre fréquences rapides et fréquences lentes : alpha+ bêta/delta + thêta ( α+β/δ+ϑ [formula] )
La dernière ingestion a précédé de 1 heure la seconde administration de diazépam.
Le diazépam (ampoules injectables - Valium® 10 - Roche) a été administré par voie orale, en solution aqueuse, sous un volume de 10 ml/singe, à des doses comprises entre 0,5 mg.kg⁻¹ et 4 mg.kg⁻¹ (doses différentes du fait d'une sensibilité individuelle propre à chaque sujet).
100 (le seuil de probabilité statistique choisi peut paraître élevé ; il est en rapport avec le faible nombre de sujets : n=7). L'ensemble de l'analyse statistique a été obtenu grâce au programme statistique SPSS/PC⁺ (SPSS Inc., Chicago)

For CN1C(=O)CN=C(c2ccccc2)c2cc(Cl)ccc21 [Diazépam, reference compound], the “Nombre de passages (moyenne)” value (souris; Valium alone 0,5 mg.kg⁻¹ P.O.) was 7,7, the “Nombre de passages (moyenne)” value (souris; Valium alone 0,25 mg.kg⁻¹ P.O.) was 7,3 and the “Nombre de passages (moyenne)” value (souris; Valium alone 1 mg.kg⁻¹ P.O.) was 9,5. The “Nombre de passages (moyenne)” value (souris; Valium alone 2 mg.kg⁻¹ P.O.) was 10,6, the “DA 50 (dose anxiolytique 50)” value (souris; diazepam alone P.O., from % tranquillised animals (>= 9 punished crossings)) was 0,76 mg.kg⁻¹ and the “durée de l'action” value ([1]; diazepam alone 0,5-4 mg.kg⁻¹ P.O.) was “jusqu'à la 5ème heure”. The “valeurs du rapport α+β/δ+ϑ” value ([1]; diazepam alone 0,5-4 mg.kg⁻¹ P.O., figure 4) was “augmentation durable”, the “acmé de l'effet” value ([1]; diazepam alone 0,5-4 mg.kg⁻¹ P.O., time after ingestion) was 45 minutes à une heure and the “proportion relative de la bande β₂” value ([1]; diazepam alone 0,5-4 mg.kg⁻¹ orally, at peak effect one hour after ingestion, reference 20 %) was 27%. For the same molecule, the “"SEF 95 %": temps du maximum” value ([1]; diazepam alone (first test), figure 3) was 30 min.

From patent EP0476120B1, “PROCESS FOR PREPARING EQUIMOLAR SALTS OF ASPARTIC ACID AND MAGNESIUM, MAGNESIUM ASPARTATE SALT OBTAINED BY SAID PROCESS AND ITS APPLICATIONS” (LA[…] SPINDLER, priority 1990, dated 1991)
